Measured values taken from article PMC9081329, “Pharmacokinetics, Mass Balance, Excretion, and Tissue Distribution of Plasmalogen Precursor PPI-1011” (Frontiers in Cell and Developmental Biology, 2022).

Assay: Repeat dose tissue distribution study (QWBA, LSC of blood and plasma), 15 daily doses
Assay type: in vivo, Sprague-Dawley rats
Protocol: Three male rats were administered [^14C]PPI-1011 at 100 mg/kg (100 μCi/kg) once daily for 15 days. One rat was sacrificed at each of the following time points after the administration of the day 15 dose: 24, 48, and 96 h. Terminal blood was collected by cardiac puncture directly into tubes with K2EDTA, an aliquot was stored at 4°C until LSC was performed for radioactivity, while the remaining blood was processed to plasma and stored at −20°C until LSC. Following blood collection, the carcasses were frozen in a cold bath with hexanes and dry ice for at least 8 min and then dried and stored at −70°C for at least 12 h. The carcasses were transferred to a −20°C freezer for at least 12 h before embedding.
QWBA was used to determine radioactivity concentrations in the caecum (contents and mucosa), large intestine (contents and mucosa), small intestine (contents and mucosa), stomach (contents and mucosa), brain, choroid plexus, spinal cord, bone, skin, adrenal gland, pineal body, pituitary gland, thyroid gland, liver, kidney (cortex, medulla and whole kidney), urinary bladder (contents and wall), brown fat, white fat, eye (lens, uveal tract and whole eye), epididymis, prostate gland, testis, ovary, uterus, lung, exorbital lachrymal gland, Harderian gland, pancreas, salivary gland, skeletal muscle, myocardium, cardiac blood, bone marrow, lymph node, spleen, and thymus. As well, LSC was used to determine the total radioactivity in the whole blood and plasma.
The whole-body cryosectioning technique described by ([Ullberg, 1977]) was the basis for embedding and cryosectioning the rats assigned to this study. Each frozen carcass was shaved, and then the limbs and tail were removed prior to embedding. Chilled (4°C) 3% CMC (low viscosity) was utilized to provide a firm support of reinforced ice around each rat and for a secure attachment to the microtome stage. Upon thorough freezing of the embedding medium surrounding each rat, the frozen CMC block was removed from the freezing bath and four 3/8 inch holes were drilled into the block. One cryosection quality control standard (CQCS) was prepared with a known amount of radioactivity and at least 1 ml aliquots were added to each of the four drilled holes. CQCS data were utilized to evaluate the overall performance of the QWBA assay.
Each frozen rat was sagittally trimmed (50–100 μm) at −20°C until exposure of a few target tissues employing a Leica Cryomacrocut heavy-duty microtome (Leica Microsystems Inc.,). Disposable stainless steel Feather type H45L knives (Feather Safety Razor Co., Ltd.) were utilized for trimming and sectioning each frozen rat. Several thinner sections (50 μm) were discarded prior to obtaining multiple 50 μm sections at various cryosectioning levels for QWBA analysis. Upon the collection of at least 60 target tissues in multiple cryosectioning levels, the cryosections were kept in the Cryomacrocut cryochamber for a minimum of 18 h for dehydration depending upon the number of cryosections within the cryochamber. After dehydration was complete, the cryosections were transferred to ambient temperature for processing. Mounted whole-body cryosections and a set of 15 standards were sandwiched between a standard phosphor screen and an exposure cassette. All cryosections were exposed to the phosphor screen for 4-days in a cabinet protected with lead prior to scanning using a Typhoon PhosphorImager (Cytiva). MCID™ Analysis software (InterFocus Ltd.) was utilized to generate a calibration curve of the STD nominal concentrations (nCi/g) versus PhosphorImager response (counts/μm^2 minus background) by weighted (1/x) linear regression analysis ([Potchoiba et al., 1995]; [Potchoiba et al., 1998]). The linear regression curve was then utilized to determine the concentration (nCi/g) of total radioactivity in whole-body tissues and blood. Radioactivity concentrations were expressed as μg Eq/g based on the specific activity of the compound in the final dose formulations. […]

[1] = 24 hr post 15 daily oral 100 mg/kg
[2] = 48 hr post 15 daily oral 100 mg/kg

CC/C=C\C/C=C\C/C=C\C/C=C\C/C=C\C/C=C\CCC(=O)O[C@H](CO[14CH2]CCCCCCCCCCCCCCC)COC(=O)CCCCC1CCSS1 (stereo partly shown) [[^14C]PPI-1011]
Mean percentage radioactivity (normalized by tissue) at 96 h relative to the 24-h timepoint (15 daily doses): 75%
Radioactivity in urine within the urinary bladder (15 daily doses): no detection of radioactivity
Time of highest blood concentration (15 daily doses): 24 HPD
Time of highest levels, adrenal gland (15 daily doses): 48 HPD
Time of highest levels, cerebrum (15 daily doses): 96 HPD
Time of highest levels, medulla oblongata (15 daily doses): 96 HPD
Time of highest levels, nasal turbinates (15 daily doses): 48 HPD
Time of highest levels, spinal cord (15 daily doses): 96 HPD
Time of highest peak concentration, bladder wall (15 daily doses): 48 HPD
Time of highest peak concentration, brown adipose (15 daily doses): 24 HPD
Time of highest peak concentration, cecum (15 daily doses): 24 HPD
Time of highest peak concentration, esophagus (15 daily doses): 24 HPD
Time of highest peak concentration, gastric mucosa (15 daily doses): 24 HPD
Time of highest peak concentration, large intestines (15 daily doses): 24 HPD
Time of highest peak concentration, ocular lens (15 daily doses): 96 HPD
Time of highest peak concentration, prostate (15 daily doses): 96 HPD
Time of highest peak concentration, seminal vesicles (15 daily doses): 24 HPD
Time of highest peak concentration, small intestines (15 daily doses): 24 HPD
Time of highest peak concentration, stomach (15 daily doses): 24 HPD
Time of highest peak concentration, subcutaneous adipose (15 daily doses): 48 HPD
Time of highest peak concentration, testis (15 daily doses): 24 HPD
Time of highest peak concentration, uveal tract (15 daily doses): 24 HPD
Time of highest peak concentration, visceral adipose (15 daily doses): 48 HPD
Time of highest peak concentration, vitreous body (15 daily doses): 24 HPD
Time of highest peak concentration, whole eye (15 daily doses): 24 HPD
Blood:plasma concentration ratio (24 HPD, 15 daily doses): 2.31
Blood:plasma concentration ratio (48 HPD, 15 daily doses): 2.86
Blood:plasma concentration ratio (96 HPD, 15 daily doses): 4.23
Radioactivity concentration, Adipose - Brown [1]: 2211 μg equivalents/g
Radioactivity concentration, Adipose - Brown (Vessel Wall) [1]: 1423 μg equivalents/g
Radioactivity concentration, Adipose - Subcutaneous [1]: 1316 μg equivalents/g
Radioactivity concentration, Adipose - Visceral [1]: 1402 μg equivalents/g
Radioactivity concentration, Adrenal Gland [1]: 1830 μg equivalents/g
Radioactivity concentration, Bladder Wall [1]: 102 μg equivalents/g
Radioactivity concentration, Blood - QWBA [1]: 55.0 μg equivalents/g
Radioactivity concentration, Bone Marrow [1]: 160 μg equivalents/g
Radioactivity concentration, Bone Surface [1]: 11.6 μg equivalents/g
Radioactivity concentration, Cecum [1]: 300 μg equivalents/g
Radioactivity concentration, Cerebellum [1]: 57.8 μg equivalents/g
Radioactivity concentration, Cerebrum [1]: 45.7 μg equivalents/g
Radioactivity concentration, Choroid Plexus [1]: 186 μg equivalents/g
Radioactivity concentration, Colliculus [1]: 68.3 μg equivalents/g
Radioactivity concentration, Diaphragm [1]: 204 μg equivalents/g
Radioactivity concentration, Esophagus [1]: 161 μg equivalents/g
Radioactivity concentration, Exorbital Lacrimal Gland [1]: 98.0 μg equivalents/g
Radioactivity concentration, Gastric Mucosa [1]: 415 μg equivalents/g
Radioactivity concentration, Harderian Gland [1]: 113 μg equivalents/g
Radioactivity concentration, Intra-Orbital Lacrimal Gland [1]: 100 μg equivalents/g
Radioactivity concentration, Kidney [1]: 304 μg equivalents/g
Radioactivity concentration, Large Intestines [1]: 255 μg equivalents/g
Radioactivity concentration, Liver [1]: 412 μg equivalents/g
Radioactivity concentration, Lung [1]: 217 μg equivalents/g
Radioactivity concentration, Lymph Node [1]: 347 μg equivalents/g
Radioactivity concentration, Medulla Oblongata [1]: 51.0 μg equivalents/g
Radioactivity concentration, Muscle [1]: 115 μg equivalents/g
Radioactivity concentration, Myocardium [1]: 292 μg equivalents/g
Radioactivity concentration, Nasal Turbinates [1]: 180 μg equivalents/g
Radioactivity concentration, Ocular - Lens [1]: 5.82 μg equivalents/g
Radioactivity concentration, Ocular - Uveal Tract [1]: 105 μg equivalents/g
Radioactivity concentration, Ocular - Vitreous Body [1]: 2.55 μg equivalents/g
Radioactivity concentration, Ocular - Whole Eye [1]: 22.7 μg equivalents/g
Radioactivity concentration, Olfactory Bulb [1]: 47.8 μg equivalents/g
Radioactivity concentration, Pancreas [1]: 355 μg equivalents/g
Radioactivity concentration, Parotid Gland [1]: 296 μg equivalents/g
Radioactivity concentration, Pineal Gland [1]: 230 μg equivalents/g
Radioactivity concentration, Pituitary Gland [1]: 266 μg equivalents/g
Radioactivity concentration, Prostate [1]: 74.6 μg equivalents/g
Radioactivity concentration, Renal Cortex [1]: 323 μg equivalents/g
Radioactivity concentration, Renal Medulla [1]: 238 μg equivalents/g
Radioactivity concentration, Salivary Gland [1]: 308 μg equivalents/g
Radioactivity concentration, Seminal Vesicles [1]: 63.2 μg equivalents/g
Radioactivity concentration, Skin - Non-Pigmented [1]: 161 μg equivalents/g
Radioactivity concentration, Small Intestines [1]: 420 μg equivalents/g
Radioactivity concentration, Spinal Cord [1]: 46.8 μg equivalents/g
Radioactivity concentration, Spleen [1]: 319 μg equivalents/g
Radioactivity concentration, Stomach [1]: 133 μg equivalents/g
Radioactivity concentration, Testis [1]: 70.3 μg equivalents/g
Radioactivity concentration, Thalamus [1]: 45.4 μg equivalents/g
Radioactivity concentration, Thymus [1]: 153 μg equivalents/g
Radioactivity concentration, Thyroid [1]: 373 μg equivalents/g
Radioactivity concentration, Whole Brain [1]: 48.8 μg equivalents/g
Radioactivity concentration, Adipose - Brown [2]: 1917 μg equivalents/g
Radioactivity concentration, Adipose - Brown (Vessel Wall) [2]: 1017 μg equivalents/g
Radioactivity concentration, Adipose - Subcutaneous [2]: 1498 μg equivalents/g
Radioactivity concentration, Adipose - Visceral [2]: 1500 μg equivalents/g
Radioactivity concentration, Adrenal Gland [2]: 2346 μg equivalents/g
Radioactivity concentration, Bladder Wall [2]: 108 μg equivalents/g
Radioactivity concentration, Blood - QWBA [2]: 34.3 μg equivalents/g
Radioactivity concentration, Bone Marrow [2]: 113 μg equivalents/g
Radioactivity concentration, Bone Surface [2]: 7.66 μg equivalents/g
Radioactivity concentration, Cecum [2]: 95.7 μg equivalents/g
Radioactivity concentration, Cerebellum [2]: 54.9 μg equivalents/g
Radioactivity concentration, Cerebrum [2]: 39.9 μg equivalents/g
Radioactivity concentration, Choroid Plexus [2]: 131 μg equivalents/g
